Where a name gives a salt, the structure may show the parent alone.
test system: SMN2 promoter; assay: SMN2 promoter assay in NSC-34 cells (β-lactamase reporter); type: cell-based, mouse; details: Mus musculus, Table 1, SMN2 promoter driving β-lactamase, 12 point dose curve, read-out: Promoter Assay EC50
Description: All compounds were screened using an in vitro based SMN2 promoter assay. We used NSC-34 cells, a hybrid cell line between mouse spinal cord cells and mouse neuroblastoma cells. NSC-34 cells harbor an expression plasmid containing a 3.4 kb promoter fragment of the SMN2 gene driving β-lactamase expression.
[…] […] CCF2-AM diffuses across the plasma membrane and is converted into an active β-lactamase substrate by cytoplasmic esterase. […] The fold induction is proportional to the extent of β-lactamase produced and in turn proportional to SMN2 promoter activation for a given compound relative to vehicle (DMSO) control. […] These values are used to rank activities of the compounds and derive structure activity relationship.

`Nc1nc(N)c2c(OCC3CCN(Cc4ccc(Cl)cc4)CC3)cccc2n1` [Example-004, 5-[1-(4-Chlorobenzyl)piperidin-4-ylmethoxy]quinazoline-2,4-diamine hydrochloride] and `Nc1nc(N)c2c(OCC3CCN(Cc4ccc(F)c(F)c4)CC3)cccc2n1` [Example-011, 5-[1-(3,4-Difluorobenzyl)piperidin-4-ylmethoxy]quinazoline-2,4-diamine] cannot be ordered by EC50: < 1 µM for the first, < 1 µM for the second.

`Nc1nc(N)c2c(OCC3CCN(C(=O)c4ccccc4F)CC3)cccc2n1` [Example-013, [4-(2,4-Diaminoquinazolin-5-yloxymethyl)piperidin-1-yl](2-fluorophenyl)methanone] and `Cc1ccccc1C(=O)N1CCC(COc2cccc3nc(N)nc(N)c23)CC1` [Example-019, [4-(2,4-Diaminoquinazolin-5-yloxymethyl)piperidin-1-yl]-o-tolylmethanone] cannot be ordered by EC50: < 1 µM for the first, < 1 µM for the second.

`Nc1nc(N)c2c(OCC3CCN(C(=O)c4ccc5ccccc5c4)CC3)cccc2n1` [Example-018, [4-(2,4-Diaminoquinazolin-5-yloxymethyl)piperidin-1-yl]naphthalen-2-yl-methanone] and `Cc1cccc(C(=O)N2CCC(COc3cccc4nc(N)nc(N)c34)CC2)c1` [Example-020, [4-(2,4-Diaminoquinazolin-5-yloxymethyl)piperidin-1-yl]-m-tolylmethanone] cannot be ordered by EC50: < 1 µM for the first, < 1 µM for the second.

`Cc1ccc(C(=O)N2CCC(COc3cccc4nc(N)nc(N)c34)CC2)cc1` [Example-021, [4-(2,4-Diaminoquinazolin-5-yloxymethyl)piperidin-1-yl]-p-tolylmethanone] and `Nc1nc(N)c2c(OCC3CCN(C(=O)c4ccc(F)c(F)c4)CC3)cccc2n1` [Example-023, [4-(2,4-Diaminoquinazolin-5-yloxymethyl)piperidin-1-yl]-(3,4-difluorophenyl)methanone] cannot be ordered by EC50: < 1 µM for the first, < 1 µM for the second.

`Nc1nc(N)c2c(OCC3CCN(C(=O)c4ccc(F)cc4F)CC3)cccc2n1` [Example-022, [4-(2,4-Diaminoquinazolin-5-yloxymethyl)piperidin-1-yl]-(2,4-difluorophenyl)methanone] and `Cc1cccc(S(=O)(=O)N2CCC(COc3cccc4nc(N)nc(N)c34)CC2)c1` [Example-032, 5-[1-(Toluene-3-sulfonyl)piperidin-4-ylmethoxy]quinazoline-2,4-diamine] cannot be ordered by EC50: < 1 µM for the first, < 1 µM for the second.

`Nc1nc(N)c2c(OCC3(S(=O)(=O)c4cccc(Cl)c4)CCNCC3)cccc2n1` [Example-026, 5-[4-(3-Chlorobenzenesulfonyl)piperidin-4-ylmethoxy]quinazoline-2,4-diamine] and `Nc1nc(N)c2c(OCC3(S(=O)(=O)c4ccc(F)c(F)c4)CCNCC3)cccc2n1` [Example-035, 5-[4-(3,4-Difluorobenzenesulfonyl)-piperidin-4-ylmethoxy]quinazoline-2,4-diamine] cannot be ordered by EC50: < 1 µM for the first, < 1 µM for the second.

In the case of `Nc1nc(N)c2c(OCC3(S(=O)(=O)c4ccccc4Cl)CCNCC3)cccc2n1` [Example-027, 5-[4-(2-Chlorobenzenesulfonyl)piperidin-4-ylmethoxy]quinazoline-2,4-diamine], the EC50 is reported as < 1 µM.

same assay, conditions: Mus musculus, Table 4, SMN2 promoter driving β-lactamase, read-out: Promoter Assay EC50 for 2391.003C(P)

Compound `CC(C)(C)OC(=O)N1CCN(c2cccc3nc(N)nc(N)c23)CC1` [Examplc-219, 4-(2,4-Diaminoquinazolin-5-yl)piperazine-1-carboxylic acid tert-butyl ester] has an EC50 of 1 to 5 µM.

same assay, conditions: Mus musculus, Table 6, SMN2 promoter driving β-lactamase, read-out: Promoter Assay EC50

In the case of `Nc1nc(N)c2c(OCC3CC[N+]([O-])(Cc4ccccc4F)CC3)cccc2n1` (centres unmarked) [Examplc-221], the EC50 is reported as 1 to 5 µM.

same assay, conditions: Table 1, SMN2 promoter driving β-lactamase, 12 point dose curve, read-out: Promoter Assay EC50

`Nc1nc(N)c2c(OCC3CCN(Cc4cccc5ccccc45)CC3)cccc2n1` [Example-005] and `Nc1nc(N)c2c(OCC3CCN(S(=O)(=O)c4cccc5ccccc45)CC3)cccc2n1` [Example-029] cannot be ordered by EC50: < 1 µM for the first, < 1 µM for the second.

`Nc1nc(N)c2c(OCC3CCN(S(=O)(=O)c4ccc(Cl)cc4)CC3)cccc2n1` [Example-028] and `Cc1ccc(S(=O)(=O)N2CCC(COc3cccc4nc(N)nc(N)c34)CC2)cc1` [Example-033] cannot be ordered by EC50: < 1 µM for the first, < 1 µM for the second.

`Nc1nc(N)c2c(OCC3CCN(S(=O)(=O)c4ccc5ccccc5c4)CC3)cccc2n1` [Example-030] and `Nc1nc(N)c2c(OCC3CCN(S(=O)(=O)c4cccc(F)c4)CC3)cccc2n1` [Example-077] cannot be ordered by EC50: < 1 µM for the first, < 1 µM for the second.

`Cc1ccccc1S(=O)(=O)N1CCC(COc2cccc3nc(N)nc(N)c23)CC1` [Example-031] and `Cc1ccc(F)cc1S(=O)(=O)N1CCC(COc2cccc3nc(N)nc(N)c23)CC1` [Example-079] cannot be ordered by EC50: < 1 µM for the first, < 1 µM for the second.

`CC(C)(C)OC(=O)N1CCC(COc2cccc3nc(N)nc(N)c23)CC1` [Example-037] and `CC(C)(C)C(=O)N1CCC(COc2cccc3nc(N)nc(N)c23)CC1` [Example-048] cannot be ordered by EC50: < 1 µM for the first, < 1 µM for the second.

`Nc1nc(N)c2c(OCC3CCN(C(=O)c4ccc(I)cc4)CC3)cccc2n1` [Example-040] and `Nc1nc(N)c2c(OCC3CCN(C(=O)c4ccc(F)cc4)CC3)cccc2n1` [Example-062] cannot be ordered by EC50: < 1 µM for the first, < 1 µM for the second.

`Nc1nc(N)c2c(OCC3CCN(C(=O)c4ccccc4I)CC3)cccc2n1` [Example-041] and `Nc1nc(N)c2c(OCC3CCN(C(=O)c4ccccc4OC(F)(F)F)CC3)cccc2n1` [Example-061] cannot be ordered by EC50: < 1 µM for the first, < 1 µM for the second.

`Nc1nc(N)c2c(OCC3CCN(Cc4ccc(I)cc4)CC3)cccc2n1` [Example-044] and `CS(=O)(=O)c1ccc(CN2CCC(COc3cccc4nc(N)nc(N)c34)CC2)cc1` [Example-047] cannot be ordered by EC50: < 1 µM for the first, < 1 µM for the second.

First: COc1ccc(CC(=O)N2CCC(COc3cccc4nc(N)nc(N)c34)CC2)cc1 [Example-045]
Second: COc1ccc(C(=O)N2CCC(COc3cccc4nc(N)nc(N)c34)CC2)cc1 [Example-056]
The EC50 of the first is higher: 1 to 5 µM for the first, < 1 µM for the second.

`Nc1nc(N)c2c(OCC3CCN(C(=O)c4cccc(F)c4)CC3)cccc2n1` [Example-046] and `Nc1nc(N)c2c(OCC3CCN(C(=O)c4cc(F)ccc4F)CC3)cccc2n1` [Example-052] cannot be ordered by EC50: < 1 µM for the first, < 1 µM for the second.

`CC1CCC(C(=O)N2CCC(COc3cccc4nc(N)nc(N)c34)CC2)CC1` (centres unmarked) [Example-049] and `Cc1cc(C(=O)N2CCC(COc3cccc4nc(N)nc(N)c34)CC2)no1` [Example-059] cannot be ordered by EC50: < 1 µM for the first, < 1 µM for the second.

`Nc1nc(N)c2c(OCC3CCN(C(=O)c4ccc(Cl)nc4)CC3)cccc2n1` [Example-051] and `Nc1nc(N)c2c(OCC3CCN(C(=O)c4ccc(C(F)(F)F)nc4)CC3)cccc2n1` [Example-071] cannot be ordered by EC50: < 1 µM for the first, < 1 µM for the second.

`Nc1nc(N)c2c(OCC3CCN(C(=O)c4cc(Cl)cc(Cl)c4)CC3)cccc2n1` [Example-054] and `Nc1nc(N)c2c(OCC3CCN(C(=O)c4ccc(Cl)cc4Cl)CC3)cccc2n1` [Example-060] cannot be ordered by EC50: < 1 µM for the first, < 1 µM for the second.

`Nc1nc(N)c2c(OCC3CCN(C(=O)c4cccs4)CC3)cccc2n1` [Example-055] and `Nc1nc(N)c2c(OCC3CCN(C(=O)c4ccco4)CC3)cccc2n1` [Example-057] cannot be ordered by EC50: < 1 µM for the first, < 1 µM for the second.

`Nc1nc(N)c2c(OCC3CCN(C(=O)c4ccc(OC(F)(F)F)cc4)CC3)cccc2n1` [Example-063] and `CCc1ccc(C(=O)N2CCC(COc3cccc4nc(N)nc(N)c34)CC2)cc1` [Example-064] cannot be ordered by EC50: < 1 µM for the first, < 1 µM for the second.

`Nc1nc(N)c2c(OCC3CCN(C(=O)CSc4ccccc4)CC3)cccc2n1` [Example-070] and `Nc1nc(N)c2c(OCC3CCN(S(=O)(=O)c4ccccc4C(F)(F)F)CC3)cccc2n1` [Example-087] cannot be ordered by EC50: < 1 µM for the first, < 1 µM for the second.

`CS(=O)(=O)N1CCC(COc2cccc3nc(N)nc(N)c23)CC1` [Example-072] and `Nc1nc(N)c2c(OCC3CCN(S(=O)(=O)c4cccs4)CC3)cccc2n1` [Example-075] cannot be ordered by EC50: < 1 µM for the first, < 1 µM for the second.

`CC(C)(C)c1ccc(S(=O)(=O)N2CCC(COc3cccc4nc(N)nc(N)c34)CC2)cc1` [Example-073] and `Nc1nc(N)c2c(OCC3CCN(S(=O)(=O)c4ccc(C(F)(F)F)cc4)CC3)cccc2n1` [Example-082] cannot be ordered by EC50: < 1 µM for the first, < 1 µM for the second.

`Nc1nc(N)c2c(OCC3CCN(S(=O)(=O)c4ccc(Cl)s4)CC3)cccc2n1` [Example-074] and `Nc1nc(N)c2c(OCC3CCN(S(=O)(=O)c4cccc(Cl)c4Cl)CC3)cccc2n1` [Example-078] cannot be ordered by EC50: < 1 µM for the first, < 1 µM for the second.

`Cc1noc(C)c1S(=O)(=O)N1CCC(COc2cccc3nc(N)nc(N)c23)CC1` [Example-076] and `Cc1noc(C)c1CN1CCC(COc2cccc3nc(N)nc(N)c23)CC1` [Example-091] cannot be ordered by EC50: < 1 µM for the first, < 1 µM for the second.

`COc1ccc(Cl)cc1S(=O)(=O)N1CCC(COc2cccc3nc(N)nc(N)c23)CC1` [Example-080] and `COc1ccc(Br)cc1S(=O)(=O)N1CCC(COc2cccc3nc(N)nc(N)c23)CC1` [Example-083] cannot be ordered by EC50: < 1 µM for the first, < 1 µM for the second.

`Cc1c(Cl)cccc1S(=O)(=O)N1CCC(COc2cccc3nc(N)nc(N)c23)CC1` [Example-081] and `Nc1nc(N)c2c(OCC3CCN(S(=O)(=O)c4c(Cl)cccc4Cl)CC3)cccc2n1` [Example-085] cannot be ordered by EC50: < 1 µM for the first, < 1 µM for the second.

`Nc1nc(N)c2c(OCC3CCN(S(=O)(=O)c4ccc(Cl)cc4Cl)CC3)cccc2n1` [Example-084] and `Nc1nc(N)c2c(OCC3CCN(S(=O)(=O)c4ccc(Cl)c(Cl)c4)CC3)cccc2n1` [Example-088] cannot be ordered by EC50: < 1 µM for the first, < 1 µM for the second.

`CS(=O)(=O)c1ccc(S(=O)(=O)N2CCC(COc3cccc4nc(N)nc(N)c34)CC2)cc1` [Example-086] and `CC(C)c1ccc(S(=O)(=O)N2CCC(COc3cccc4nc(N)nc(N)c34)CC2)cc1` [Example-089] cannot be ordered by EC50: < 1 µM for the first, < 1 µM for the second.

`CC(=O)Nc1ccc(S(=O)(=O)N2CCC(COc3cccc4nc(N)nc(N)c34)CC2)cc1` [Example-090] and `Nc1nc(N)c2c(OCC3CCN(Cc4cc(Cl)nc(Cl)c4)CC3)cccc2n1` [Example-093] cannot be ordered by EC50: < 1 µM for the first, < 1 µM for the second.
